The values that follow come from ChEMBL document CHEMBL1129930, “Analogues of methotrexate in rheumatoid arthritis. 2. Effects of 5-deazaaminopterin, 5,10-dideazaaminopterin, and analogues on type II collagen-induced arthritis in mice” (J Med Chem, 1997).

Assay type in all cases: functional
Assay [1] relates to Mus musculus. Nature of the assay: Incidence of disease (mouse type II collagen) was scored as the percentage of animals within each experimental group that exhibited joint or limb inflammation on day 37 at intraperitoneal dose of 10 mg/kg.
The test system of assay [2] is Mus musculus. Nature of the assay: Incidence of disease (mouse type II collagen) was scored as the percentage of animals within each experimental group that exhibited joint or limb inflammation on day 44 at intraperitoneal dose of 5 mg/kg.
In assay [3] the test system is Mus musculus. Nature of the assay: Incidence of disease (mouse type II collagen) was scored as the percentage of animals within each experimental group that exhibited joint or limb inflammation on day 23 at intraperitoneal dose of 10 mg/kg.
For assay [4], the system named is Mus musculus. Nature of the assay: Tested for antiinflammatory activity on mouse type II collagen arthritis as Paw swelling of all animals in each group on day 30 at intraperitoneal dose of 5 mg/kg.
For assay [5], the system named is Mus musculus. Nature of the assay: Tested for antiinflammatory activity on mouse type II collagen arthritis as Paw swelling of all animals in each group on day 30 at intraperitoneal dose of 10 mg/kg.
Assay [6] concerns Mus musculus. Nature of the assay: Tested for antiinflammatory activity on mouse type II collagen arthritis as Paw swelling of all animals in each group on day 23 at intraperitoneal dose of 5 mg/kg.
For assay [7], the system named is Mus musculus. Nature of the assay: Tested for antiinflammatory activity on mouse type II collagen arthritis as Paw swelling of all animals in each group on day 44 at intraperitoneal dose of 10 mg/kg.
For assay [8], the system named is Mus musculus. Nature of the assay: Incidence of disease (mouse type II collagen) was scored as the percentage of animals within each experimental group that exhibited joint or limb inflammation on day 37 at intraperitoneal dose of 5 mg/kg.
The subject of assay [9] is Mus musculus. Nature of the assay: Incidence of disease (mouse type II collagen) was scored as the percentage of animals within each experimental group that exhibited joint or limb inflammation on day 23 at intraperitoneal dose of 5 mg/kg.
The subject of assay [10] is Mus musculus. Nature of the assay: Tested for antiinflammatory activity on mouse type II collagen arthritis as Paw swelling of all animals in each group on day 37 at intraperitoneal dose of 10 mg/kg.
Assay [11] relates to Mus musculus. Nature of the assay: Tested for antiinflammatory activity on mouse type II collagen arthritis as Paw swelling of all animals in each group on day 23 at intraperitoneal dose of 10 mg/kg.
Assay [12] relates to Mus musculus. Nature of the assay: Incidence of disease (mouse type II collagen) was scored as the percentage of animals within each experimental group that exhibited joint or limb inflammation on day 30 at intraperitoneal dose of 10 mg/kg.
Assay [13] relates to Mus musculus. Nature of the assay: Incidence of disease (mouse type II collagen) was scored as the percentage of animals within each experimental group that exhibited joint or limb inflammation on day 44 at intraperitoneal dose of 10 mg/kg.
The test system of assay [14] is Mus musculus. Nature of the assay: Tested for antiinflammatory activity on mouse type II collagen arthritis as Paw swelling of all animals in each group on day 37 at intraperitoneal dose of 5 mg/kg.
For assay [15], the system named is Mus musculus. Nature of the assay: Incidence of disease (mouse type II collagen) was scored as the percentage of animals within each experimental group that exhibited joint or limb inflammation on day 30 at intraperitoneal dose of 5 mg/kg.
The subject of assay [16] is Mus musculus. Nature of the assay: Tested for antiinflammatory activity on mouse type II collagen arthritis as Paw swelling of all animals in each group on day 44 at intraperitoneal dose of 5 mg/kg.

On to `C#CCC(Cc1cnc2nc(N)nc(N)c2c1C)c1ccc(C(=O)NC(CCC(=O)O)C(=O)O)cc1` (stereo unspecified), for which the Animals in assay [1] is reported as 71%; in assay [2], 88%; in assay [3], 14%; in assay [8] it was 62%; in assay [9], 12%; in assay [12] it was 57%. Further, the Animals in assay [13] was determined as 71%; in assay [15] it was 12%. The Paw swelling came out at 2.17 mm in assay [4]; 2.37 mm in [5]; 2.18 mm in [6]; 2.7 mm in [7]; 2.65 mm in assay [10]; 2.19 mm in [11]. In addition, the Paw swelling in assay [14] was 2.45 mm; in assay [16], 2.64 mm.
